From PMC12670405, “Second-Generation AURKA-Targeting PROTACs: Structural Optimization toward in Vivo Degradation in Neuroblastoma” (Journal of Medicinal Chemistry, 2025)

Legend:
Assay in all cases: KINOMEscan scanMAX
Format in all cases: binding
EGFR(S752-I759del) = target: T1, EGFR(S752-I759del) (Homo sapiens, UniProt P00533, DEL752-759); conditions: read-out: Percent Control
T1 construct: purchased Eurofins Discovery (DiscoverX KINOMEscan scanMAX)
Description: (§1) The kinome-wide binding assay was performed by Eurofins Discovery using the scanMAX screening platform. More information can be found on the Eurofins Discovery Web site.

PHKG1 = target: T2, PHKG1 (Homo sapiens, UniProt Q16816); conditions: read-out: Percent Control
T2 construct: purchased Eurofins Discovery (DiscoverX KINOMEscan scanMAX)
Description: as §1

PFPK5(P.falciparum) = target: T3, PFPK5(P.falciparum) (Plasmodium falciparum, UniProt P61075); conditions: read-out: Percent Control
T3 construct: purchased Eurofins Discovery (DiscoverX KINOMEscan scanMAX)
Description: as §1

SRC = target: T4, SRC (Homo sapiens, UniProt P12931); conditions: read-out: Percent Control
T4 construct: purchased Eurofins Discovery (DiscoverX KINOMEscan scanMAX)
Description: as §1

BRAF(V600E) = target: T5, BRAF(V600E) (Homo sapiens, UniProt P15056, V600E); conditions: read-out: Percent Control
T5 construct: purchased Eurofins Discovery (DiscoverX KINOMEscan scanMAX)
Description: as §1

FGR = target: T6, FGR (Homo sapiens, UniProt P09769); conditions: read-out: Percent Control
T6 construct: purchased Eurofins Discovery (DiscoverX KINOMEscan scanMAX)
Description: as §1

WNK3 = target: T7, WNK3 (Homo sapiens, UniProt Q9BYP7); conditions: read-out: Percent Control
T7 construct: purchased Eurofins Discovery (DiscoverX KINOMEscan scanMAX)
Description: as §1

MAP4K4 = target: T8, MAP4K4 (Homo sapiens, UniProt O95819); conditions: read-out: Percent Control
T8 construct: purchased Eurofins Discovery (DiscoverX KINOMEscan scanMAX)
Description: as §1

ABL1 = target: T9, ABL1 (Homo sapiens, UniProt P00519); conditions: 1000 nM; read-out: Percent Control
T9 construct: purchased Eurofins Discovery
Description: as §1

PIK3CA(E545A) = target: T10, PIK3CA(E545A) (Homo sapiens, UniProt P42336, E545A); conditions: read-out: Percent Control
T10 construct: purchased Eurofins Discovery (DiscoverX KINOMEscan scanMAX)
Description: as §1

AURKB = target: T11, AURKB (Homo sapiens, UniProt Q96GD4); conditions: read-out: Percent Control
T11 construct: purchased Eurofins Discovery
Description: as §1

ALK(C1156Y) = target: T12, ALK(C1156Y) (Homo sapiens, UniProt Q9UM73, C1156Y); conditions: read-out: Percent Control
T12 construct: purchased Eurofins Discovery (DiscoverX KINOMEscan scanMAX)
Description: as §1

EPHB3 = target: T13, EPHB3 (Homo sapiens, UniProt P54753); conditions: read-out: Percent Control
T13 construct: purchased Eurofins Discovery (DiscoverX KINOMEscan scanMAX)
Description: as §1

SGK3 = target: T14, SGK3 (Homo sapiens, UniProt Q96BR1); conditions: read-out: Percent Control
T14 construct: purchased Eurofins Discovery (DiscoverX KINOMEscan scanMAX)
Description: as §1

FLT3(D835Y) = target: T15, FLT3(D835Y) (Homo sapiens, UniProt P36888, D835Y); conditions: read-out: Percent Control
T15 construct: purchased Eurofins Discovery (DiscoverX KINOMEscan scanMAX)
Description: as §1

HASPIN = target: T16, HASPIN (Homo sapiens, UniProt Q8TF76); conditions: read-out: Percent Control
T16 construct: purchased Eurofins Discovery (DiscoverX KINOMEscan scanMAX)
Description: as §1

MEK2 = target: T17, MEK2 (Homo sapiens, UniProt P36507); conditions: read-out: Percent Control
T17 construct: purchased Eurofins Discovery (DiscoverX KINOMEscan scanMAX)
Description: as §1

YANK3 = target: T18, YANK3 (Homo sapiens, UniProt Q86UX6); conditions: read-out: Percent Control
T18 construct: purchased Eurofins Discovery (DiscoverX KINOMEscan scanMAX)
Description: as §1

CAMK2D = target: T19, CAMK2D (Homo sapiens, UniProt Q13557); conditions: read-out: Percent Control
T19 construct: purchased Eurofins Discovery (DiscoverX KINOMEscan scanMAX)
Description: as §1

[1] = target: T20, ABL1(Y253F)-phosphorylated (Homo sapiens, UniProt P00519, Y253F); conditions: read-out: Percent Control
T20 construct: purchased Eurofins Discovery (DiscoverX KINOMEscan scanMAX)
Description: as §1

CDK9 = target: T21, CDK9 (Homo sapiens, UniProt P50750); conditions: read-out: Percent Control
T21 construct: purchased Eurofins Discovery (DiscoverX KINOMEscan scanMAX)
Description: as §1

INSR = target: T22, INSR (Homo sapiens, UniProt P06213); conditions: read-out: Percent Control
T22 construct: purchased Eurofins Discovery (DiscoverX KINOMEscan scanMAX)
Description: as §1

DMPK = target: T23, DMPK (Homo sapiens, UniProt Q09013); conditions: read-out: Percent Control
T23 construct: purchased Eurofins Discovery (DiscoverX KINOMEscan scanMAX)
Description: as §1

BRSK1 = target: T24, BRSK1 (Homo sapiens, UniProt Q8TDC3); conditions: read-out: Percent Control
T24 construct: purchased Eurofins Discovery (DiscoverX KINOMEscan scanMAX)
Description: as §1

MYLK = target: T25, MYLK (Homo sapiens, UniProt Q15746); conditions: read-out: Percent Control
T25 construct: purchased Eurofins Discovery (DiscoverX KINOMEscan scanMAX)
Description: as §1

IRAK4 = target: T26, IRAK4 (Homo sapiens, UniProt Q9NWZ3); conditions: read-out: Percent Control
T26 construct: purchased Eurofins Discovery (DiscoverX KINOMEscan scanMAX)
Description: as §1

CAMK1G = target: T27, CAMK1G (Homo sapiens, UniProt Q96NX5); conditions: read-out: Percent Control
T27 construct: purchased Eurofins Discovery (DiscoverX KINOMEscan scanMAX)
Description: as §1

PRKD2 = target: T28, PRKD2 (Homo sapiens, UniProt Q9BZL6); conditions: read-out: Percent Control
T28 construct: purchased Eurofins Discovery (DiscoverX KINOMEscan scanMAX)
Description: as §1

MST4 = target: T29, MST4 (Homo sapiens, UniProt Q9P289); conditions: read-out: Percent Control
T29 construct: purchased Eurofins Discovery (DiscoverX KINOMEscan scanMAX)
Description: as §1

YSK4 = target: T30, YSK4 (Homo sapiens, UniProt Q56UN5); conditions: read-out: Percent Control
T30 construct: purchased Eurofins Discovery (DiscoverX KINOMEscan scanMAX)
Description: as §1

CIT = target: T31, CIT (Homo sapiens, UniProt O14578); conditions: read-out: Percent Control
T31 construct: purchased Eurofins Discovery (DiscoverX KINOMEscan scanMAX)
Description: as §1

EGFR(L858R,T790M) = target: T32, EGFR(L858R,T790M) (Homo sapiens, UniProt P00533, L858R/T790M); conditions: read-out: Percent Control
T32 construct: purchased Eurofins Discovery (DiscoverX KINOMEscan scanMAX)
Description: as §1

PIP5K1C = target: T33, PIP5K1C (Homo sapiens, UniProt O60331); conditions: read-out: Percent Control
T33 construct: purchased Eurofins Discovery (DiscoverX KINOMEscan scanMAX)
Description: as §1

T32 sequence (P00533 25-1210 T790M/L858R): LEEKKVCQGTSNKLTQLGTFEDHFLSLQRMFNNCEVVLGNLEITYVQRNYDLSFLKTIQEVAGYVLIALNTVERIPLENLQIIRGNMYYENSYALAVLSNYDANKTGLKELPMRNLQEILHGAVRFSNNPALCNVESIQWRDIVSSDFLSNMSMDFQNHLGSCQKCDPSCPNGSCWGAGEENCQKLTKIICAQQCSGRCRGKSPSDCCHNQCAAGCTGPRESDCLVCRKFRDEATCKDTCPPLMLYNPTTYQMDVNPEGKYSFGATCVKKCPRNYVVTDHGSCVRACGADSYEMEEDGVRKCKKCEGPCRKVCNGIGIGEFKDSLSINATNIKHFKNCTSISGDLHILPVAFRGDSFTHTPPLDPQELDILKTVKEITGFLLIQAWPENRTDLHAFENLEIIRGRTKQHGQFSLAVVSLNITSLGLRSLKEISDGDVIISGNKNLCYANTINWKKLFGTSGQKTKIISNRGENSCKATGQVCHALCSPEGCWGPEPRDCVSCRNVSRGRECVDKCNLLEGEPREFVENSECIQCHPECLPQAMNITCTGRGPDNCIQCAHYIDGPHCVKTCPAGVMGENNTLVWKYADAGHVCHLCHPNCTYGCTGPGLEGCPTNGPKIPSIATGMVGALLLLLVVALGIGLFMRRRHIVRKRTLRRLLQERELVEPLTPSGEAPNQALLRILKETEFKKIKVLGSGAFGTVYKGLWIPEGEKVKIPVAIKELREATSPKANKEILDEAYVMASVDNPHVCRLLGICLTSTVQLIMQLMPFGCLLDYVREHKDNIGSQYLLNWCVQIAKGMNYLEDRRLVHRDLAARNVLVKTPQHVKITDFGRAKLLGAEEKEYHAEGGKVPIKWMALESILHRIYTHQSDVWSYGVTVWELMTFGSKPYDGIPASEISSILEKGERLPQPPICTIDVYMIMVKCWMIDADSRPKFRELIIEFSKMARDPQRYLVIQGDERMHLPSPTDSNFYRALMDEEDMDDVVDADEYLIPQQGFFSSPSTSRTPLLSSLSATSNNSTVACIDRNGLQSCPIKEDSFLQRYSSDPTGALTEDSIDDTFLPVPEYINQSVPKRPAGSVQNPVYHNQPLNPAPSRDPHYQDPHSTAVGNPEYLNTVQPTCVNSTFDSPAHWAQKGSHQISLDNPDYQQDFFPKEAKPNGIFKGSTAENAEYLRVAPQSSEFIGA
T27 sequence (Q96NX5 whole entry): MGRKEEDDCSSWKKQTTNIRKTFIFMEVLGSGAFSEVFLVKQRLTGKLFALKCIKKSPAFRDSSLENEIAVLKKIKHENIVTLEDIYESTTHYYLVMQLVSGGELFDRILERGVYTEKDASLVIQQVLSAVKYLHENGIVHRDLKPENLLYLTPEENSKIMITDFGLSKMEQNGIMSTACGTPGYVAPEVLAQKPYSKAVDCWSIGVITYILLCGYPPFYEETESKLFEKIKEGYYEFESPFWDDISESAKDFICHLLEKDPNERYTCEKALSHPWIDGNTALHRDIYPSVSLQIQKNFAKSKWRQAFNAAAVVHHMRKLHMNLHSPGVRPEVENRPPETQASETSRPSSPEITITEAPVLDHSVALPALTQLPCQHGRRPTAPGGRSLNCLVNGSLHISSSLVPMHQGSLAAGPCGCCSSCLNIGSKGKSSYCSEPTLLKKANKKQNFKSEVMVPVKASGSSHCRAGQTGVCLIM
T21 sequence (P50750 whole entry): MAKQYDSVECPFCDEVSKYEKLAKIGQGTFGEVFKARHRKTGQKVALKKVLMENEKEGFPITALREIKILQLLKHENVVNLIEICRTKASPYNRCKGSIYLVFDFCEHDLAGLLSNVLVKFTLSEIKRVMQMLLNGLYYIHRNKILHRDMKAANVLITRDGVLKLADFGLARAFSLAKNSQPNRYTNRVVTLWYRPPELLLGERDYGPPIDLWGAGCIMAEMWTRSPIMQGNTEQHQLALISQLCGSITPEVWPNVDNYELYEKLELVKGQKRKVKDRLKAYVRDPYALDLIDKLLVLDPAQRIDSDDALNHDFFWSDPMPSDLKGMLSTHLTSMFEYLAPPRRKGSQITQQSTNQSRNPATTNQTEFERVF
T22 sequence (P06213 28-1382): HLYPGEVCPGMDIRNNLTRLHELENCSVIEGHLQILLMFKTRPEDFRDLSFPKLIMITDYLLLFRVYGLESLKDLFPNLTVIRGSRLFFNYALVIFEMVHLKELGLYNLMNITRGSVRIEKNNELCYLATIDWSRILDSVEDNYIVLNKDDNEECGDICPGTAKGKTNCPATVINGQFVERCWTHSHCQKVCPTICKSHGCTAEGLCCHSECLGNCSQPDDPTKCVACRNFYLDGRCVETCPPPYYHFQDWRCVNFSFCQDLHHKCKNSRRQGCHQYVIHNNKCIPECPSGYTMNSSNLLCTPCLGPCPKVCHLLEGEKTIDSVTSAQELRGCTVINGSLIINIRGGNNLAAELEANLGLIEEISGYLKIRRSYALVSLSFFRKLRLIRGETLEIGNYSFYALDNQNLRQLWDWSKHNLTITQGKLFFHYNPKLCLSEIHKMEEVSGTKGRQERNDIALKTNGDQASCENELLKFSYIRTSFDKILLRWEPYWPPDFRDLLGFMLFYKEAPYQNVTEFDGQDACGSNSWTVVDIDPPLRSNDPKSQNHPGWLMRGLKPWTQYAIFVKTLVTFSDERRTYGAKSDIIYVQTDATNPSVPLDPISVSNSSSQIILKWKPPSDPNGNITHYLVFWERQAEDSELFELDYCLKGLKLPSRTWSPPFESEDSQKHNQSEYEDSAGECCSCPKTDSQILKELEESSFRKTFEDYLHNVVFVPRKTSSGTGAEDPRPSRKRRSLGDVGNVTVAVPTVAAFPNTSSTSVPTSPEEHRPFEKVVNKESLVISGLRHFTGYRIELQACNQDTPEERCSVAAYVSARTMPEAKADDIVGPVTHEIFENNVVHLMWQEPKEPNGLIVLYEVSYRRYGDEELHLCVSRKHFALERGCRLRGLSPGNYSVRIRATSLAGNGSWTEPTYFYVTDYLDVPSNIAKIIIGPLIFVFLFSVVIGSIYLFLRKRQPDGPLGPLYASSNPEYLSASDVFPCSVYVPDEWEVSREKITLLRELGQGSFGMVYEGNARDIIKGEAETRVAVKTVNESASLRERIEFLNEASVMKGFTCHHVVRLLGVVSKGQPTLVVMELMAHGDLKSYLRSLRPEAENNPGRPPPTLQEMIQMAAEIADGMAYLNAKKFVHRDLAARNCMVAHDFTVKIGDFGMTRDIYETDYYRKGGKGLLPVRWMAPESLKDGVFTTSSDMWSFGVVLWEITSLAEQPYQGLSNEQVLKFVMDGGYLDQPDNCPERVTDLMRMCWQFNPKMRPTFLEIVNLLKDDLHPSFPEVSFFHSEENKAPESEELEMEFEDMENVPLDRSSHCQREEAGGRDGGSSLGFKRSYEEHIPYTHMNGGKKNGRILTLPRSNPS
T30 sequence (Q56UN5 whole entry): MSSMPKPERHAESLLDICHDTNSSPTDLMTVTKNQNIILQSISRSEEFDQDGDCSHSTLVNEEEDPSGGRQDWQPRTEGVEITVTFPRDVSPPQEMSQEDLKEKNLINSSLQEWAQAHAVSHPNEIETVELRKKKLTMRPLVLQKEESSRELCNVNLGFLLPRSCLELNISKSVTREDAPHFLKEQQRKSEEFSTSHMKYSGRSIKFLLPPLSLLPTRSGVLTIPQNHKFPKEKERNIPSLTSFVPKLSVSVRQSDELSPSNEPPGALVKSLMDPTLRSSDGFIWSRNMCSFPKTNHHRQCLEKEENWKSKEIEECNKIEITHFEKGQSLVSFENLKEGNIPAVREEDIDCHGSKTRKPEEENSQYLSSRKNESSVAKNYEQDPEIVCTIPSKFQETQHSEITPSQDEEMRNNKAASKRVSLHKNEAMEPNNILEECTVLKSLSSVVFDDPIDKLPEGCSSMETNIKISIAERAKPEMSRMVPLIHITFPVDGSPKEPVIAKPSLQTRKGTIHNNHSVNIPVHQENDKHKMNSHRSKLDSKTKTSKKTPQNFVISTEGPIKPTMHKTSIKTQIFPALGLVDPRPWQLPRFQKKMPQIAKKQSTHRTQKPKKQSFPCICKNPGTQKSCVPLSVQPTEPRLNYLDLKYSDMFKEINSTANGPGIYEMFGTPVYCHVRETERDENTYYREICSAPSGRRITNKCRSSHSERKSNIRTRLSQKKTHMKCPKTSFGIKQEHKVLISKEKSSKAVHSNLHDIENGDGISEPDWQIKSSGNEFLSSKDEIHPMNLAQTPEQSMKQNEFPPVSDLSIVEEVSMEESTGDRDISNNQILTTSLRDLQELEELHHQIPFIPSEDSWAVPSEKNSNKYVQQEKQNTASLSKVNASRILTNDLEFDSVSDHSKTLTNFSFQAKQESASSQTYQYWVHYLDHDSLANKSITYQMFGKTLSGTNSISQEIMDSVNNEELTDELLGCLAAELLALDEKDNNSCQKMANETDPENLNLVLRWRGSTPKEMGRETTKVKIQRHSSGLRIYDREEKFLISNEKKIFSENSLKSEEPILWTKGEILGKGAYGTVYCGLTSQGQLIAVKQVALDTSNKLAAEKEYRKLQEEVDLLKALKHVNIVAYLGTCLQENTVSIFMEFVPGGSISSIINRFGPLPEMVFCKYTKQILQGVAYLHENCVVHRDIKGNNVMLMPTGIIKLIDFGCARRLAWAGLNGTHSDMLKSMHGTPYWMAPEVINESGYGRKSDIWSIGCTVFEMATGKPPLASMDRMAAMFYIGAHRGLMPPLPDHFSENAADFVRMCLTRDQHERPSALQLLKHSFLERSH
T3 sequence (P61075 whole entry): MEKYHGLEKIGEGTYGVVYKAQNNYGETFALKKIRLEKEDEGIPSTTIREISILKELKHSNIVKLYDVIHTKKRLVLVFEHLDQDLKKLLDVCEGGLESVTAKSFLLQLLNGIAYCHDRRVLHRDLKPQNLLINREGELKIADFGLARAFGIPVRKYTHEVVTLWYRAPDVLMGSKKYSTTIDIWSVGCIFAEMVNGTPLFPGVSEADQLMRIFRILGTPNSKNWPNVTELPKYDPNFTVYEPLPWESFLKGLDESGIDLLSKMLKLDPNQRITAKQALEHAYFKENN

Cc1cc(Nc2ccc(F)c(CC3(C(=O)N4CCC(F)(CN5CCN(c6ccc(N7CCC(=O)NC7=O)cn6)CC5)CC4)CCN(Cc4cccc(Cl)c4F)CC3)n2)n[nH]1 [SK5527]
remaining binding at 0.1 µM (EGFR(S752-I759del); 100 nM): 98%
remaining binding at 1 µM (EGFR(S752-I759del); 1000 nM): 100%
remaining binding at 0.1 µM (PHKG1; 100 nM): 99%
remaining binding at 1 µM (PHKG1; 1000 nM): 100%
remaining binding at 0.1 µM (PFPK5(P.falciparum); 100 nM): 89%
remaining binding at 1 µM (PFPK5(P.falciparum); 1000 nM): 80%
remaining binding at 0.1 µM (SRC; 100 nM): 66%
remaining binding at 1 µM (SRC; 1000 nM): 33%
remaining binding at 0.1 µM (BRAF(V600E); 100 nM): 100%
remaining binding at 1 µM (BRAF(V600E); 1000 nM): 100%
remaining binding at 0.1 µM (FGR; 100 nM): 89%
remaining binding at 1 µM (FGR; 1000 nM): 61%
remaining binding at 0.1 µM (WNK3; 100 nM): 82%
remaining binding at 1 µM (WNK3; 1000 nM): 71%
remaining binding at 0.1 µM (MAP4K4; 100 nM): 86%
remaining binding at 1 µM (MAP4K4; 1000 nM): 73%
remaining binding at 1 µM (ABL1): 8.4%
remaining binding at 0.1 µM (PIK3CA(E545A); 100 nM): 72%
remaining binding at 1 µM (PIK3CA(E545A); 1000 nM): 100%
remaining binding at 0.1 µM (AURKB; 100 nM): 100%
remaining binding at 1 µM (AURKB; 1000 nM): 53%
remaining binding at 0.1 µM (ALK(C1156Y); 100 nM): 87%
remaining binding at 1 µM (ALK(C1156Y); 1000 nM): 100%
remaining binding at 0.1 µM (EPHB3; 100 nM): 100%
remaining binding at 1 µM (EPHB3; 1000 nM): 100%
remaining binding at 0.1 µM (SGK3; 100 nM): 100%
remaining binding at 1 µM (SGK3; 1000 nM): 88%
remaining binding at 0.1 µM (FLT3(D835Y); 100 nM): 69%
remaining binding at 1 µM (FLT3(D835Y); 1000 nM): 72%
remaining binding at 0.1 µM (HASPIN; 100 nM): 79%
remaining binding at 1 µM (HASPIN; 1000 nM): 70%
remaining binding at 0.1 µM (MEK2; 100 nM): 80%
remaining binding at 1 µM (MEK2; 1000 nM): 81%
remaining binding at 0.1 µM (YANK3; 100 nM): 86%
remaining binding at 1 µM (YANK3; 1000 nM): 80%
remaining binding at 0.1 µM (CAMK2D; 100 nM): 95%
remaining binding at 1 µM (CAMK2D; 1000 nM): 93%
remaining binding at 0.1 µM ([1]; 100 nM): 63%
remaining binding at 1 µM ([1]; 1000 nM): 36%
remaining binding at 0.1 µM (CDK9; 100 nM): 90%
remaining binding at 1 µM (CDK9; 1000 nM): 97%
remaining binding at 0.1 µM (INSR; 100 nM): 85%
remaining binding at 1 µM (INSR; 1000 nM): 85%
remaining binding at 0.1 µM (DMPK; 100 nM): 88%
remaining binding at 1 µM (DMPK; 1000 nM): 90%
remaining binding at 0.1 µM (BRSK1; 100 nM): 100%
remaining binding at 1 µM (BRSK1; 1000 nM): 98%
remaining binding at 0.1 µM (MYLK; 100 nM): 76%
remaining binding at 1 µM (MYLK; 1000 nM): 47%
remaining binding at 0.1 µM (IRAK4; 100 nM): 87%
remaining binding at 1 µM (IRAK4; 1000 nM): 70%
remaining binding at 0.1 µM (CAMK1G; 100 nM): 100%
remaining binding at 1 µM (CAMK1G; 1000 nM): 92%
remaining binding at 0.1 µM (PRKD2; 100 nM): 78%
remaining binding at 1 µM (PRKD2; 1000 nM): 90%
remaining binding at 0.1 µM (MST4; 100 nM): 95%
remaining binding at 1 µM (MST4; 1000 nM): 86%
remaining binding at 0.1 µM (YSK4; 100 nM): 72%
remaining binding at 1 µM (YSK4; 1000 nM): 72%
remaining binding at 0.1 µM (CIT; 100 nM): 100%
remaining binding at 1 µM (CIT; 1000 nM): 100%
remaining binding at 0.1 µM (EGFR(L858R,T790M); 100 nM): 82%
remaining binding at 1 µM (EGFR(L858R,T790M); 1000 nM): 87%
remaining binding at 0.1 µM (PIP5K1C; 100 nM): 100%
remaining binding at 1 µM (PIP5K1C; 1000 nM): 94%
